Measurements published in the NIST ThermoML archive (doi:10.1021/je900716q).
± gives the expanded uncertainty stated by the source.

Tests used:
[1] = xn = mol fraction of the nth substance listed; conditions: Liquid, measurement of pressure, x2 = 0
[2] = 101.33 kPa, Liquid, Pycnometric method

| SMILES | binary diffusion coefficient ([1]; 303.15 K) [m2/s] | binary diffusion coefficient ([1]; 313.15 K) [m2/s] | binary diffusion coefficient ([1]; 323.15 K) [m2/s] | binary diffusion coefficient ([1]; 333.15 K) [m2/s] | binary diffusion coefficient ([1]; 343.15 K) [m2/s] | binary diffusion coefficient ([1]; 353.15 K) [m2/s] | mass density ([2]; 300.71 K) [kg/m3] | mass density ([2]; 303.35 K) [kg/m3] | mass density ([2]; 304.95 K) [kg/m3] | mass density ([2]; 307.31 K) [kg/m3] | mass density ([2]; 310.81 K) [kg/m3] | mass density ([2]; 314.35 K) [kg/m3] |
| --- | --- | --- | --- | --- | --- | --- | --- | --- | --- | --- | --- | --- |
| C[n+]1ccn(CCO)c1.F[B-](F)(F)F [1-(2-hydroxyethyl)-3-methylimidazolium tetrafluoroborate] + S | 1.79e-08 | 2.15e-08 | 2.76e-08 | 3.24e-08 | 3.8e-08 | 4.41e-08 | – | – | – | – | – | – |
| C[n+]1ccn(CCO)c1.F[B-](F)(F)F [1-(2-hydroxyethyl)-3-methylimidazolium tetrafluoroborate] + O=C=O | 1.4e-08 | 2.09e-08 | 3.94e-08 | 4.65e-08 | 5.71e-08 | 7.16e-08 | – | – | – | – | – | – |
| C[n+]1ccn(CCO)c1.F[B-](F)(F)F [1-(2-hydroxyethyl)-3-methylimidazolium tetrafluoroborate] | – | – | – | – | – | – | 1384 ± 1 | 1380 ± 1 | 1379 ± 1 | 1376 ± 1 | 1373 ± 1 | 1369 ± 1 |
